The values that follow come from PubChem BioAssay AID977630 (Broad Institute, 2014).

The test system of the assay is E. coli wild-type GFP growth, mixed culture, 24 h. The experiment in a line: E. coli growth inhibition, wild-type GFP versus H38 humanized RFP strain – H38 mutant RFP vs wild-type GFP, cherry-pick, dose response (AID 977630).
Where [1] appears, read: E. coli mixed culture total OD600 growth, 24 h.

Inconclusive results are not listed. Active and inactive are the calls of the source.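 How the source made its calls: active means Normal-ribosome green reporter loss at least double humanized-ribosome red reporter loss, with overall culture growth inhibition under a set limit; inconclusive means no clear call, values can overlap the other calls; inactive means the rest.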

Turning to `Cc1cccc(NC(=O)c2c(C)nn(-c3ccccc3)c2Cl)c1`, under setting [1], the AC50 – broadly, the midpoint of the concentration-response curve, whichever way the signal moves – stood at 41.6 µM. Regarding `COc1cccc(-c2ccc(NC(=O)C3CCCN(Cc4cnn(C(C)C)c4)C3)cc2)c1` (centres undefined), the concentration at half-maximal activity (AC50) under setting [1] was > 100 µM. With `COC(=O)c1c(NC(=O)CCC(=O)O)sc(Cc2ccccc2)c1C`, the AC50 was 3.63 µM. As to `COc1ccc2[nH]c3c(=O)n(CCCCC(=O)NCCC(C)C)c(=S)[nH]c3c2c1`, the AC50 is 2.42 µM. Besides, the AC50 under setting [1] was > 100 µM. On to `CCOc1ncccc1C(=O)OCC(=O)NCCCc1ccccc1`, for which the AC50 is > 100 µM (inactive). In the case of `COc1ccc(C(NC(=O)C2CCN(CCOc3ccc(Cl)cc3Cl)CC2)c2ccccc2C)cn1` (centres undefined), under setting [1], the AC50 is > 100 µM. For `Cc1ccc(NC(=O)c2ccc([N+](=O)[O-])o2)c(C)c1`, the AC50 was > 100 µM (inactive). For `COc1ccc2nc(SCC(=O)Nc3ccccc3)[nH]c2c1`, the AC50 is > 100 µM (inactive). The AC50 under setting [1] is > 100 µM.

On to `Cc1ccc(S(=O)(=O)N2CCOCC2)cc1NC(=O)COc1ccc(-c2nnco2)cc1`, for which the AC50 was > 100 µM (inactive). Regarding `CCNC(=O)C1(C)CCCN(Cc2cccc3ccccc23)C1` (centres undefined), the AC50 is > 100 µM (inactive).

For `Cc1noc(C)c1COc1cccc(C(=O)N2CCc3ccccc32)c1`, the AC50 was > 100 µM (inactive). For `CCN(CC)C(=O)c1ccc(COc2ccccc2Cl)o1`, the AC50 is > 100 µM (inactive). For the same compound, the half-maximal activity concentration (AC50) under setting [1] is > 100 µM.

`CC(=O)N1CCN(c2nc(-c3cccs3)nc3ccccc23)CC1`: the AC50 is > 100 µM (inactive).

For the compound `Cc1nn2c(NCc3ccccn3)cc(C(C)C)nc2c1-c1ccccc1`, the AC50 is > 100 µM (inactive). `CCN(CC)S(=O)(=O)c1cccc(NC(=O)CNc2cccc(S(=O)(=O)N3CCCC3)c2)c1`: the AC50 is > 100 µM (inactive). `CNC(=O)c1ccsc1NC(=O)c1ccc(S(=O)(=O)N2CCc3ccccc32)cc1`: the AC50 under setting [1] was > 100 µM. With `CC1CCCN(C(=O)C(C)Nc2cc(Cl)ccc2N2CCOCC2)C1` (centres undefined), the AC50 is > 100 µM (inactive). In the case of `O=C(COC(=O)C1CC1)Nc1nc(-c2ccc(F)c(F)c2)cs1`, the AC50 was > 100 µM (inactive). In the case of `Fc1ccc(-c2nc3ccc(Cl)cn3c2Cc2cccc(Cl)c2)cc1`, under setting [1], the AC50 was > 100 µM.

For the compound `O=C(c1cccs1)c1c[nH]cc1-c1ccccc1`, the AC50 under setting [1] was > 100 µM.

For the compound `CC(C)(C)CC(=O)NCCc1csc(-c2ccccc2)n1`, the AC50 was > 100 µM (inactive). For `CC1CCN(C(=O)COC(=O)c2ccccc2NC(=O)c2ccco2)CC1`, the AC50 is > 100 µM (inactive).

Regarding `O=C(COc1ccccc1Cl)Nc1nc(-c2ccncc2)cs1`, the AC50 was > 100 µM (inactive). For the compound `Nc1[nH]c(C(=O)c2ccccc2)c(-c2ccc(Cl)cc2)c1C(=O)NCCc1c[nH]c2ccccc12`, the AC50 is > 100 µM (inactive). For the same compound, the AC50 under setting [1] is > 100 µM. With `Cc1noc(NS(=O)(=O)c2ccc(NC(=O)c3cc(-c4ccccc4Cl)nc4ccccc34)cc2)c1C`, the AC50 was > 100 µM (inactive). In addition, under setting [1], the AC50 was > 100 µM. For the compound `COc1cc(OC)cc(C(=O)Nc2ccc(C(=O)Nc3ccccc3OC)cc2)c1`, the AC50 is > 100 µM (inactive).

For the compound `CC(=O)Nc1ccc(CNc2nc(NCCN(C)C)nc3cc(-c4ccccc4)sc23)cc1`, the AC50 is > 100 µM (inactive). In the case of `CCOc1ccc2nc(NC(=O)CSc3nc(SC)ns3)sc2c1`, the AC50 is > 100 µM (inactive). In addition, the AC50 under setting [1] is > 100 µM. As to `CSc1ncc(CN2CCCC(C(=O)c3cccc(Cl)c3)C2)cn1` (centres undefined), the AC50 is > 100 µM (inactive). Also, the AC50 under setting [1] is > 100 µM. In the case of `CN(C)CCCN(C(=O)CCSc1ccccc1)c1nc2cc3c(cc2s1)OCO3`, the AC50 is > 100 µM (inactive). As to `O=C(Nc1cccnc1)c1ccc([N+](=O)[O-])o1`, the AC50 is > 100 µM (inactive). As for `CC(C)(C)C1CCC(C(=O)OCC(=O)N2CCN(C(=O)c3ccco3)CC2)CC1` (centres undefined), the AC50 was > 100 µM (inactive).

In the case of `CCN(c1ccccc1)S(=O)(=O)c1ccc(OC)c(NC(=O)C2CC(=O)N(Cc3ccccc3)C2)c1` (centres undefined), the AC50 is > 100 µM (inactive).

Regarding `CS(=O)(=O)c1ccc(Cl)c(NC(=O)CSc2nncn2-c2ccccc2)c1`, the AC50 is > 100 µM (inactive).

On to `Cc1cccc(C(=O)NCC(=O)N2CC=C(c3ccccc3)CC2)c1`, for which the AC50 was > 100 µM (inactive).

Turning to `C=CCNC(=O)c1ccccc1CCc1ccccc1`, the AC50 is > 100 µM (inactive). Take `O=S1(=O)c2ccc(Br)cc2OCCC2CCCCN21` (centres undefined): the AC50 is > 100 µM (inactive). The AC50 under setting [1] was > 100 µM. For the compound `CN(CCOc1ccccc1)S(=O)(=O)c1ccccc1C#N`, the AC50 is > 100 µM (inactive).

With `O=S(=O)(NCc1ccc2c(c1)OCO2)c1ccc2c(c1)oc1ccccc12`, the AC50 was > 100 µM (inactive). The same compound registered a concentration at half-maximal activity (AC50) under setting [1] of 27.2 µM. With `O=C(CCC1CCCN(C(=O)c2ccsc2)C1)N1CCN(c2ccccn2)CC1` (centres undefined), the AC50 was > 100 µM (inactive). In the case of `Nc1nc(Nc2ccccc2F)nc(N2CCOCC2)c1[N+](=O)[O-]`, the AC50 was > 100 µM (inactive). In the case of `Cc1nc(SCC(=O)Nc2ccc3c(c2)OCCO3)nc(C)c1C`, the AC50 is > 100 µM (inactive). For the same compound, the AC50 under setting [1] was > 100 µM.

In the case of `CCS(=O)(=O)N1CCN(c2ccnc3cc(Cl)ccc23)CC1`, the AC50 was > 100 µM (inactive). Besides, the AC50 under setting [1] is > 100 µM. As to `COc1ccccc1Cc1c(-c2ccc(F)cc2)nc2ccc(Br)cn12`, the AC50 is > 100 µM (inactive). As to `O=c1[nH]c(C2CCCN(S(=O)(=O)c3ccccc3Cl)C2)nc2c1nnn2Cc1ccc2c(c1)OCCO2` (centres undefined), the AC50 is > 100 µM (inactive). In addition, the AC50 under setting [1] is > 100 µM.

In the case of `Cc1nn(C(C)(C)C)c(OC(=O)CC(C)C)c1S(=O)(=O)c1ccccc1`, the AC50 was > 100 µM (inactive). In the case of `O=C(CCNc1cccc(Cl)c1)c1cccs1`, the AC50 was > 100 µM (inactive). Same read-out and setting: with `Cc1cccc(Oc2ccc(NC(=O)c3ccccc3C(=O)O)cc2)c1` the figure was > 100 µM (inactive). For `COc1ccccc1CN1Cc2ccccc2Oc2ccccc2S1(=O)=O`, the AC50 was > 100 µM (inactive). In addition, under setting [1], the AC50 was > 100 µM. As for `CC1(C)CC2CC(C)(CN2c2ncnc3ccccc23)C1` (centres undefined), the AC50 was > 100 µM (inactive). Moreover, under setting [1], the AC50 is > 100 µM.

In the case of `Cc1ccc(S(=O)(=O)Nc2ccccc2CNc2cccc(C)n2)cc1`, the AC50 was > 100 µM (inactive). On to `O=C(COC(=O)C1CC2C=CC1C2)Nc1ccc([N+](=O)[O-])cc1` (centres undefined), for which the AC50 is > 100 µM (inactive). Besides, under setting [1], the AC50 was > 100 µM. For `COC(=O)c1cc(C(=O)c2c(C)cc3ccccn23)cc([N+](=O)[O-])c1`, the AC50 under setting [1] is > 100 µM. Consider `CCCNc1ccc(C(=O)OCC)cc1[N+](=O)[O-]`, for which the AC50 was > 100 µM (inactive). Moreover, under setting [1], the AC50 is > 100 µM. For the compound `Cc1ccc(SCC(=O)Nc2ccc(S(=O)(=O)Nc3nccs3)cc2)cc1`, the AC50 was > 100 µM (inactive). With `Cc1cccc(CN2C(=O)c3ccccc3Sc3ccc(C(=O)NCCN4CCOCC4)cc32)c1`, the AC50 under setting [1] was > 100 µM. Take `COc1ccc(CSc2nc3ccccc3c(=O)n2CCCN2CCOCC2)cc1F`: the AC50 is > 100 µM (inactive). Same read-out and setting: in the case of `Oc1c(Br)cc(Br)cc1Br` it was > 100 µM (inactive); in that of `O=C(CCNC(=O)c1ccco1)Nc1cccc(Br)c1`, > 100 µM (inactive); in that of `Nc1ccccc1Nc1ccc([N+](=O)[O-])cc1[N+](=O)[O-]`, > 100 µM (inactive).

Consider `CCOCCCNC(=O)C(NC(=O)c1ccccc1O)c1ccc(C)cc1` (centres undefined), for which the AC50 was > 100 µM (inactive). Under setting [1], the AC50 is > 100 µM. The matching figures for `N#Cc1nc(-c2ccco2)oc1NCc1ccccc1Cl`: > 100 µM (inactive) and 41.5 µM. On the same counts, the results for `CSc1nc2nc3c(cc2c(=O)n1-c1ccccc1C)CCCC3` are > 100 µM (inactive) and > 100 µM. Regarding `C[C@@H]1CCCCO[C@H](CN(C)C(=O)CCCN(C)C)[C@H](C)CN([C@@H](C)CO)C(=O)c2cc(NC(=O)Nc3cccc4ccccc34)ccc2O1`, the AC50 under setting [1] is > 100 µM. Regarding `Nc1ccc(C(=O)Nc2ccc3nc(-c4ccncc4)[nH]c3c2)cc1`, the AC50 under setting [1] was > 100 µM.

`O=S1(=O)N[C@H](Cc2ccccc2)COc2cccc(N3CCC[C@H]3CO)c21`: the AC50 is > 100 µM (inactive).

Consider `Cc1ccsc1C(=O)C1CCCN(Cc2cc(F)ccc2-n2cccn2)C1` (centres undefined), for which the AC50 was > 100 µM (inactive). Further, the AC50 under setting [1] is > 100 µM. Take `CC1CCCN(c2ccc(C(=O)NCCc3ccccc3)cn2)C1` (centres undefined): the AC50 is > 100 µM (inactive). Moreover, under setting [1], the AC50 is > 100 µM. As to `Cc1cccc(NC(=O)CN(C)S(=O)(=O)c2cccs2)c1`, the AC50 was > 100 µM (inactive).

As for `O=C(c1cnc(Cc2c[nH]c3ccccc23)c(I)c1)N1CCCCC1`, the AC50 was > 100 µM (inactive). Besides, under setting [1], the concentration at half-maximal activity (AC50) is > 100 µM. Consider `O=C(Nc1ccc2nc(-c3cccnc3)[nH]c2c1)c1ccco1`, for which the AC50 was > 100 µM (inactive).

`CN(C)CCCN(C(=O)COc1ccc(Cl)cc1)c1nc2ccc(F)cc2s1`: the AC50 was > 100 µM (inactive).

Take `O=c1[nH]c(C2CCN(S(=O)(=O)c3ccc4c(c3)OCCO4)CC2)nc2c1nnn2Cc1ccccc1F`: the AC50 was > 100 µM (inactive). Also, the AC50 under setting [1] was > 100 µM. In the case of `Cc1cc(C)n2nc(C(=O)Nc3cccc(S(=O)(=O)N(C)c4ccccc4)c3)nc2n1`, the AC50 is > 100 µM (inactive).

For `O=C(O)CC(CC(=O)Nc1ccc(Oc2ccccc2)cc1)c1ccccc1` (centres undefined), the AC50 was > 100 µM (inactive). Further, the AC50 under setting [1] was > 100 µM. On the same counts, the results for `O=C1c2ccccc2C(c2nnnn2C2CCCCC2)N1CCc1ccc(O)cc1` (centres undefined) are > 100 µM (inactive) and > 100 µM.

Regarding `COc1ccc(OC)c(NC(=O)CN(C)CC(=O)Nc2ccccc2Br)c1`, the AC50 is > 100 µM (inactive). As for `Cc1ccc(-c2cc(-c3ccc(C)cc3)[n+](-c3ccc(C(=O)[O-])cc3)c(-c3ccc(C)cc3)c2)cc1`, the AC50 was > 100 µM (inactive). With `COC(=O)c1sccc1NC(=O)CNC(=O)c1ccccc1`, under setting [1], the AC50 was > 100 µM.
